Measurements: article PMC9490176 (Frontiers in Pharmacology, 2022)

Legend:
[1] = test system: pyrotinib metabolism in rat liver microsomes (RLMs); assay: In vitro drug-drug interaction study: azole inhibition of pyrotinib metabolism (M1 formation) in RLMs; format: in vitro ADME, Sprague-Dawley (SD) rat; settings: for IC50: 0.3 mg/ml RLMs, 1 mM NADPH, 37°C, 30 min, n = 3; for Ki / αKi: RLMs, pyrotinib 1, 2, 4, 8 µM, Lineweaver-Burk analysis
Description: The rats were anesthetized with 10% chloral hydrate after 12 h of starvation. […] The rat liver tissue was then accurately removed and transferred to Petri dishes at 0–4°C. The tissues were homogenized in 0.15 mol/L KCl-PBS buffer and stored at 4°C. The homogenate (CR30NX, Eppendorf, Germany) was centrifuged at 9000 rpm at 4°C for 30 min. The supernatant was transferred to another tube and was centrifuged at 105000 rpm at 4°C for 60 min. The precipitate containing liver microsomes was removed and suspended in 0.15 mol/L KCl-PBS buffer (containing 0.25 mol/L sucrose) and stored at −80°C for later use. The liver microsomal concentration was 8.838 mg/ml after the determination with the BCA protein quantification kit (Thermo Scientific, Waltham, MA, United States).
Waters Acquity UPLC I-Class (Waters, USA) was used to separate pyrotinib and midazolam. A binary solvent manager (BSM) and sample manager with a flow-through needle (SM-FTN) were used in the UPLC system. The metabolites’ effective separation was achieved using Acquity UPLC HSS T3 (100 × 2.1 mm, 1.8 μm particle size) (Waters Corporation, Milford, MA, USA) with a mobile phase of acetonitrile (solvent A) and 0.1% formic acid water containing 20 mmol ammonium acetate (solvent B). The gradient program was set as following: 0–0.3 min 10–30% A; 0.3–1 min 30–95% A; 1–2 min 95% A; 2–2.3 min 95–10% A. The mobile phase’s flow rate was 0.4 mL/min, the column temperature was set as 40 °C, and the injection volume was 2 μL. The XEVO TQD triple quadrupole mass spectrometer was equipped with an electrospray ionization (ESI) source, and the multiple reaction monitoring (MRM) mode was selected for quantification. The data were collected using the Mass lynx 4.1 software (Waters Corp.). Mass spectral data were obtained in positive electrospray mode (ESI+) in MRM mode. Nitrogen was used as desolvation (1000 L/h) and cone gases (50 L/h). The ion monitoring voltage conditions were as follows: capillary voltage, 2.5 kV; source temperature, 150°C; desolvation temperature, 500°C. Various reaction monitoring methods were used for quantitative analysis.
200 µl of the incubation mixture was set up as following: 0.3 mg/ml RLMs, 100 mM potassium phosphate buffer (pH 7.4), 1 mM NADPH, and three azole antifungal drugs. […] For fluconazole and itraconazole, the concentrations of them were all adjusted to 0.01, 0.1, 1, 5, 10, 50, and 100 µM. […] The ingredients were combined and pre-warmed for 5 min at 37°C. The reaction was initiated with NADPH and incubated at 37°C for 30 min. Then, 200 µl of acetonitrile-midazolam solution (containing midazolam 200 ng/ml) was added and the mixture was vortexed for 2 min to stop the reaction. After been centrifuged at 13000 rpm for 5 min, 2 µl aliquot of the supernatant was then used for the UPLC-MS/MS analysis.
GraphPad Prism 7.0 software (GraphPad Software Inc.) was used to calculate the enzyme kinetic parameters of substrates which include Vmax, Km, IC50, Ki, and αKi values. The enzyme inhibition mode was obtained using the Linear Lineweaver-Burk plots. The PK characteristics, maximal plasma concentration (Cmax), time to peak plasma concentration (Tmax), apparent volume of distribution (Vz/F), area under the plasma concentration-time curve (AUC), elimination half-life (t1/2), plasma clearance (Cl/F), and mean residence time (MRT), were calculated using DAS (Drug and Statistics) software (Version 3.2.8, The People’s Hospital of Lishui, China). The one-way ANOVA and a Dunnet’s multiple range test were used for the statistical comparisons within groups with SPSS software (Version 25.0; SPSS Inc.). Statistical significance was set at p < 0.05.

[2] = Stability evaluation in rat plasma (UPLC-MS/MS method validation); format: in vitro ADME; settings: n = 6
Description: The test method was extensively verified regarding precision, accuracy, and stability, according to the EMA (European Medicines Agency) 2011 and FDA (Food and Drug Administration) 2018 criteria. In six replicates, quality control (QC) samples were generated at low, medium, and high concentrations and were utilized to validate the procedure. This method was designed to conform to EMA and FDA regulatory requirements for bioanalytical methods.

[3] = In vivo pharmacokinetics of pyrotinib in rats with or without azole pretreatment; design: species or system Sprague-Dawley rats; settings: rat, 40 mg/kg azole for 7 days, then 8 mg/kg pyrotinib oral
Description: Male Sprague-Dawley rats (180–220 g) were supplied by the Experimental Animal Center of Wenzhou Medical University. The animals were placed in a controlled environment of 20–26°C and 55 ± 15% relative humidity under a 12 h light-dark cycle. Except for the 12-h fasting period before the PK study, all rats were fed a standard rodent diet and freely consumed tap water. All experimental procedures and protocols were reviewed and approved by the Animal Care and Use Committee of the Wenzhou Medical University (No. wydw 2019-650), following the Guidelines for The Care and Use of Laboratory Animals. […] After the last administration of the three azoles or 0.5% CMC-Na (control group), a single dose of 8 mg/kg pyrotinib was administered orally to all rats in each group. Each group consisted of 6 rats. The azole antifungal medication was dissolved in 0.5% carboxymethylcellulose sodium solution (CMC-Na). […] The plasma was obtained by centrifuging the blood samples at 4000 rpm for 10 min at 4°C and stored at −80°C until analysis. The frozen plasma samples were thawed at room temperature and uniformly mixed; 50 μL of plasma sample was removed and mixed with 150 μL acetonitrile-midazolam solution (containing midazolam 200 ng/ml) to precipitate the proteins, followed by vortexing for 30 s and centrifuging at 13,000 rpm for 5 min. Then 150 μL of the supernatant was collected and placed into UPLC vials with 2 μL of sample was subjected to UPLC-MS/MS analysis. GraphPad Prism 7.0 software (GraphPad Software Inc.) was used to calculate the enzyme kinetic parameters of substrates which include Vmax, Km, IC50, Ki, and αKi values. The enzyme inhibition mode was obtained using the Linear Lineweaver-Burk plots. The PK characteristics, maximal plasma concentration (Cmax), time to peak plasma concentration (Tmax), apparent volume of distribution (Vz/F), area under the plasma concentration-time curve (AUC), elimination half-life (t1/2), plasma clearance (Cl/F), and mean residence time (MRT), were calculated using DAS (Drug and Statistics) software (Version 3.2.8, The People’s Hospital of Lishui, China). The one-way ANOVA and a Dunnet’s multiple range test were used for the statistical comparisons within groups with SPSS software (Version 25.0; SPSS Inc.). Statistical significance was set at p < 0.05.

SMILES	IC50 [1] [µM]	Ki [1] [µM]	αKi [1] [µM]	Stability in rat plasma, RE ([2]; 4°C, 24 h, high concentration (pyrotinib 4500, pyrotinib M1 0.75 μM)) [%]	Stability in rat plasma, RE ([2]; 4°C, 24 h, low concentration (pyrotinib 15, pyrotinib M1 0.015 μM)) [%]	Stability in rat plasma, RE ([2]; 4°C, 24 h, medium concentration (pyrotinib 150, pyrotinib M1 0.15 μM)) [%]	Stability in rat plasma, RE ([2]; Room temperature, 6 h, high concentration (pyrotinib 4500, pyrotinib M1 0.75 μM)) [%]	Stability in rat plasma, RE ([2]; Room temperature, 6 h, low concentration (pyrotinib 15, pyrotinib M1 0.015 μM)) [%]	Stability in rat plasma, RE ([2]; Room temperature, 6 h, medium concentration (pyrotinib 150, pyrotinib M1 0.15 μM)) [%]	Stability in rat plasma, RE ([2]; −80°C, 7 days, high concentration (pyrotinib 4500, pyrotinib M1 0.75 μM)) [%]	Stability in rat plasma, RE ([2]; −80°C, 7 days, low concentration (pyrotinib 15, pyrotinib M1 0.015 μM)) [%]	Stability in rat plasma, RE ([2]; −80°C, 7 days, medium concentration (pyrotinib 150, pyrotinib M1 0.15 μM)) [%]	inhibitory effect on pyrotinib in vivo [3]
CC(=O)N1CCN(c2ccc(OCC3COC(Cn4ccnc4)(c4ccc(Cl)cc4Cl)O3)cc2)CC1 (stereo not shown) [ketoconazole, Ketoconazole]	0.06	0.132	0.077	–	–	–	–	–	–	–	–	–	–
CCOc1cc2ncc(C#N)c(Nc3ccc(O)c(Cl)c3)c2cc1NC(=O)/C=C/[C@@H]1CCCN1C [Pyrotinib M1, O-depicolyl pyrotinib]	–	–	–	103.58	104.44	108.67	108.42	102.22	102.44	104.47	109.33	107.56	–
CCC(C)n1ncn(-c2ccc(N3CCN(c4ccc(OCC5COC(Cn6cncn6)(c6ccc(Cl)cc6Cl)O5)cc4)CC3)cc2)c1=O (stereo not shown) [itraconazole, Itraconazole]	0.27	0.496	0.334	–	–	–	–	–	–	–	–	–	no inhibitory effect
